From PubChem BioAssay (NCI)
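The compound was tested at five concentrations on cells cultured in 96-well plates, with a 48-hour exposure period. Abbreviation: GI50, concentration required for 50% inhibition of growth. TGI denotes the concentration required for complete inhibition of growth.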

Tests used:
Assay in all cases: DTP human tumour cell line panel, 48 h
SW-620 colon = system: SW-620 colon
OVCAR-4 ovarian = system: OVCAR-4 ovarian
MALME-3M melanoma = system: MALME-3M melanoma
TK-10 renal = system: TK-10 renal
KM12 colon = system: KM12 colon
SK-MEL-28 melanoma = system: SK-MEL-28 melanoma
UACC-257 melanoma = system: UACC-257 melanoma
LOX IMVI melanoma = system: LOX IMVI melanoma
SNB-19 CNS = system: SNB-19 CNS
NCI-H226 lung = system: NCI-H226 lung
NCI-H460 lung = system: NCI-H460 lung
EKVX NSCLC = system: EKVX NSCLC
SN12C renal = system: SN12C renal
NCI-H23 lung = system: NCI-H23 lung
DU-145 prostate = system: DU-145 prostate
U251 CNS = system: U251 CNS
K-562 leukemia = system: K-562 leukemia
SF-268 CNS = system: SF-268 CNS
HOP-62 NSCLC = system: HOP-62 NSCLC
MOLT-4 leukemia = system: MOLT-4 leukemia
HCC-2998 colon = system: HCC-2998 colon
SNB-75 CNS = system: SNB-75 CNS
RXF 393 renal = system: RXF 393 renal
CCRF-CEM leukemia = system: CCRF-CEM leukemia
SK-MEL-2 melanoma = system: SK-MEL-2 melanoma
MDA-MB-435 = system: MDA-MB-435
UACC-62 melanoma = system: UACC-62 melanoma

SMILES: COc1cc(OC)cc(-c2n/c(=C\c3c(O)[nH]c4ccc(Cl)cc34)cc3c2=Nc2ccccc2-3)c1
- GI50 (SW-620 colon): 2.66 µM
- TGI (SW-620 colon): 8 µM
- GI50 (OVCAR-4 ovarian): 1.76 µM
- TGI (OVCAR-4 ovarian): 3.77 µM
- GI50 (MALME-3M melanoma): 21.6 µM
- TGI (MALME-3M melanoma): 44.7 µM
- GI50 (TK-10 renal): 3.79 µM
- TGI (TK-10 renal): 8.96 µM
- GI50 (KM12 colon): 3.95 µM
- TGI (KM12 colon): 14.1 µM
- GI50 (SK-MEL-28 melanoma): 29.3 µM
- TGI (SK-MEL-28 melanoma): > 100 µM
- GI50 (UACC-257 melanoma): > 100 µM
- TGI (UACC-257 melanoma): > 100 µM
- GI50 (LOX IMVI melanoma): 1.92 µM
- TGI (LOX IMVI melanoma): 4.34 µM
- GI50 (SNB-19 CNS): 3.54 µM
- TGI (SNB-19 CNS): 16.1 µM
- GI50 (NCI-H226 lung): 22.8 µM
- TGI (NCI-H226 lung): 59.8 µM
- GI50 (NCI-H460 lung): 3.26 µM
- TGI (NCI-H460 lung): 10.5 µM
- GI50 (EKVX NSCLC): 13.6 µM
- TGI (EKVX NSCLC): 37.8 µM
- GI50 (SN12C renal): 3.73 µM
- TGI (SN12C renal): 17.2 µM
- GI50 (NCI-H23 lung): 2.34 µM
- TGI (NCI-H23 lung): 6.06 µM
- GI50 (DU-145 prostate): 2.91 µM
- TGI (DU-145 prostate): 6.88 µM
- GI50 (U251 CNS): 1.75 µM
- TGI (U251 CNS): 3.22 µM
- GI50 (K-562 leukemia): 2.72 µM
- TGI (K-562 leukemia): 6.29 µM
- GI50 (SF-268 CNS): 3.35 µM
- TGI (SF-268 CNS): 11.4 µM
- GI50 (HOP-62 NSCLC): 1.99 µM
- TGI (HOP-62 NSCLC): 3.99 µM
- GI50 (MOLT-4 leukemia): 2.18 µM
- TGI (MOLT-4 leukemia): 4.74 µM
- GI50 (HCC-2998 colon): 4.22 µM
- TGI (HCC-2998 colon): 19.5 µM
- GI50 (SNB-75 CNS): 16.3 µM
- TGI (SNB-75 CNS): 39.6 µM
- GI50 (RXF 393 renal): 6.05 µM
- TGI (RXF 393 renal): 21.4 µM
- GI50 (CCRF-CEM leukemia): 3.34 µM
- TGI (CCRF-CEM leukemia): > 100 µM
- GI50 (SK-MEL-2 melanoma): 20.8 µM
- TGI (SK-MEL-2 melanoma): 43.4 µM
- GI50 (MDA-MB-435): 14 µM
- TGI (MDA-MB-435): 35.4 µM
- GI50 (UACC-62 melanoma): 16.9 µM
- TGI (UACC-62 melanoma): 35.2 µM
